Test results taken from patent publication US11623925B2, “Processes for preparing a diaminopyrimidine derivative or acid addition salt thereof” (YUHAN CORPORATION, priority 2018, dated 2023).
Where a name gives a salt, the structure may show the parent alone.

Assays:
[1] = Storage of the amorphous hydrochloride at room temperature; assay type: physicochemical; details: stored at room temperature; in words
Method: In addition, WO 2012/115480 has disclosed the step for converting the compound of Formula 1 to a hydrochloride thereof. The converting step comprises reacting the compound of Formula 1 with hydrochloric acid in ethyl acetate, stirring at room temperature for 1 hour, and then filtering the product. It has been found by the present inventors that the hydrochloride of the compound of Formula 1 obtained by said method is in the amorphous form and brings about the problem producing deacetylated impurities in high level when stored at room temperature.

[2] = Stability tests: storage at 60° C. and 75% RH for 2 weeks, HPLC analysis; assay type: physicochemical; details: for change in the HPLC purity / change in the amount of deacetylated impurities: 2 weeks, in words
Method: (S)-N-(1-(2-((4-amino-3-nitrophenyl)amino)-6-propylpyrimidin-4-yl)pyrrolidin-3-yl) acetamide hydrochloride prepared according to WO 2012/115480 (Amorphous form, Test compound 1) and the crystalline form A of (S)-N-(1-(2-((4-amino-3-nitrophenyl)amino)-6-propylpyrimidin-4-yl)pyrrolidin-3-yl)acetamide hydrochloride prepared in Example 7 (Test compound 2) were stored under the conditions of 60° C. and 75% RH for 2 weeks. The amounts of each test compound and the deacetylated impurities were analyzed with HPLC so as to measure the respective HPLC purities.

SMILES	deacetylated impurities produced on storage [1]	change in the HPLC purity [2]	change in the amount of deacetylated impurities [2]	HPLC purities, Compound ([2]; Storage time: 1 week)	HPLC purities, Deacetylated impurities ([2]; Storage time: 1 week)	HPLC purities, Compound ([2]; Storage time: 2 weeks)	HPLC purities, Deacetylated impurities ([2]; Storage time: 2 weeks)	HPLC purities, Compound ([2]; Storage time: Initial)	HPLC purities, Deacetylated impurities ([2]; Storage time: Initial)
CCCc1cc(N2CC[C@H](NC(C)=O)C2)nc(Nc2ccc(N)c([N+](=O)[O-])c2)n1.Cl [Test compound 1, (S)-N-(1-(2-((4-amino-3-nitrophenyl)amino)-6-propylpyrimidin-4-yl)pyrrolidin-3-yl) acetamide hydrochloride]	high level	marked decrease	marked increase	95.5%	3.78%	86.6%	12.7%	98.7%	0.58%
CCCc1cc(N2CC[C@H](NC(C)=O)C2)nc(Nc2ccc(N)c([N+](=O)[O-])c2)n1 [Test compound 2, (S)-N-(1-(2-((4-amino-3-nitrophenyl)amino)-6-propylpyrimidin-4-yl)pyrrolidin-3-yl)acetamide hydrochloride]	–	no significant change	no significant change	99.6%	0.07%	99.6%	0.07%	99.6%	0.08%
